Experimental data published in ChEMBL document CHEMBL4811260, “Isolation, synthesis and absolute configuration of 4,5-dihydroxypiperines improving behavioral disorder in AlCl3-induced dementia” (2021).
Activity calls are given as the source filed them. No cut-off for these calls is given here.

How the values were obtained:
Danio rerio [1] = organism: Danio rerio; test: Antialzheimer activity against AlCl3-induced dementia zebrafish model assessed as increase in response efficiency at 10 uM measured for 60 mins under alternating light and dark environment in presence of 150 uM of AlCl3 relative to control; type: functional
Danio rerio [2] = organism: Danio rerio; test: Antialzheimer activity against AlCl3-induced dementia zebrafish model assessed as increase in dyskinesia recovery rate at 10 uM measured for 60 mins under alternating light and dark environment in presence of 150 uM of AlCl3 relative to control; type: functional
Danio rerio [3] = organism: Danio rerio; test: Antialzheimer activity against AlCl3-induced dementia zebrafish model assessed as increase in zebrafish movement speed at 10 uM measured for 60 mins under alternating light and dark environment in presence of 150 uM of AlCl3; type: functional, organism-based
Danio rerio [4] = organism: Danio rerio; test: Antialzheimer activity against AlCl3-induced dementia zebrafish model assessed as increase in zebrafish movement speed change at 10 uM measured for 60 mins under alternating light and dark environment in presence of 150 uM of AlCl3; type: functional, organism-based

| Compound | Activity (Danio rerio [1]) | Activity (Danio rerio [2]) | Activity (Danio rerio [1]; 1 h) [%] | Activity (Danio rerio [3]) | Activity (Danio rerio [4]) | Activity (Danio rerio [2]; 1 h) [%] |
| --- | --- | --- | --- | --- | --- | --- |
| O=C(/C=C/[C@@H](O)[C@H](O)c1ccc2c(c1)OCO2)N1CCCCC1 | inactive | inactive |  |  |  |  |
| O=C(/C=C/[C@H](O)[C@@H](O)c1ccc2c(c1)OCO2)N1CCCCC1 | inactive | inactive |  |  |  |  |
| O=C(/C=C/[C@H](O)[C@H](O)c1ccc2c(c1)OCO2)N1CCCCC1 | inactive | inactive |  |  |  |  |
| O=C(/C=C/[C@@H](O)[C@@H](O)c1ccc2c(c1)OCO2)N1CCCCC1 |  |  | 85.4 | Active | Active | 73.8 |
